# Like-named read-outs stand apart in the source and are kept apart here. Square brackets hold non-standard residues; d marks the D form. Side chains are listed from the residue outwards. Ends that are not written are not given here. Peptide text beside a SMILES is read from it. maleimide = maleimide activating group on PEG that reacts with a thiol-containing amino acid by Michael addition to form a thioether linkage (PEGylation); Aib = CC(C)(N)C(=O)O; Sar = CNCC(=O)O
# What was measured:
# [1] = Dipeptide cleavage half time in PBS on model hexapeptide (HPLC, LC-MS); type: physicochemical; settings: for Relative peak area(%), HPLC peak a: molecular weight 702; for Relative peak area(%), HPLC peak b: molecular weight 902
# Experimental: The hexapeptide was assembled on a peptide synthesizer.
# Then it was incubated at 37° C. in a water bath. […] HPLC was used to monitor the cleavage reaction.
# The flow rate was 1 mL/min.
# The slope of this plot gives the rate constant I′.
# glucagon receptor = glucagon receptor (Homo sapiens, UniProt P47871); assay: glucagon antagonism of Class 4 peptides, cAMP production in vitro; type: cell-based; settings: PLA at position 6 versus positions 4 and 5
# GLP-1 receptor = GLP-1 receptor (Homo sapiens, UniProt P43220); assay: GLP-receptor Luciferase assay of prodrug samples incubated in PBS; type: cell-based; settings: Table 5
# Sequence of GLP-1 receptor (P43220 24-463, species assumed): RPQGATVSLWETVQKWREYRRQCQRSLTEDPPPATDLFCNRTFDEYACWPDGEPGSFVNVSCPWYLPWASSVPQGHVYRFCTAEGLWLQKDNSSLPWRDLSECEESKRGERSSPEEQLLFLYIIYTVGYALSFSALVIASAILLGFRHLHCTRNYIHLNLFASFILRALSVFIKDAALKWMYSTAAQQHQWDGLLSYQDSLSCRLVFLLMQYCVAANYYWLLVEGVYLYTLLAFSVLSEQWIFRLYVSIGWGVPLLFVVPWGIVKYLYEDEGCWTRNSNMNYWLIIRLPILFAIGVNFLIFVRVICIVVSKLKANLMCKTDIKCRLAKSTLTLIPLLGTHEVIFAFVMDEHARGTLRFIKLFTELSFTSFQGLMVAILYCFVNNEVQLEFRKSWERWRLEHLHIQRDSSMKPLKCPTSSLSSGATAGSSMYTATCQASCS
# Sequence of glucagon receptor (P47871 26-477): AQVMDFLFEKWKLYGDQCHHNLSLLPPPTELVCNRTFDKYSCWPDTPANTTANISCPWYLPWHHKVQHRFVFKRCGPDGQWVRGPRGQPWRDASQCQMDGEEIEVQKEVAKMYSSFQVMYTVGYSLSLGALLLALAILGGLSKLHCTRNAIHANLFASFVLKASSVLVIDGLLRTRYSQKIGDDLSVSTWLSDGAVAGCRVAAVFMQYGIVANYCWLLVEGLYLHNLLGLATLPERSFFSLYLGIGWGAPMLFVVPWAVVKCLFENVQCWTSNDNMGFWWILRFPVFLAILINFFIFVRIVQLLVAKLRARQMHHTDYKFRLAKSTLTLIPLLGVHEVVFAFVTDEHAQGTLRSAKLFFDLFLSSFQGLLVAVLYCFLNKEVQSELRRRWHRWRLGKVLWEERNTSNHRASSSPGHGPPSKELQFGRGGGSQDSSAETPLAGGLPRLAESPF
compound,measurement,setting,value
C[C@@H](O)[C@H](NC(=O)CNC(=O)[C@H](CCCNC(=N)N)NC(=O)[C@H](CO)NC(=O)[C@H](Cc1c[nH]cn1)NC(=O)CN(C)C(=O)[C@@H](N)CCCCN)C(=O)N[C@@H](Cc1ccccc1)C(N)=O [lys-sar-HSRGTF-NH2] (H-K[Sar]HSRGTF-NH2; N-terminus assumed),"Relative peak area(%), HPLC peak a","[1]; 5 h in PBS pH 7.4, 37° C.",26.5%
same,"Relative peak area(%), HPLC peak b","[1]; 5 h in PBS pH 7.4, 37° C.",73.5%
same,"Relative peak area(%), HPLC peak a",[1]; 8 h in PBS,28.9%
same,"Relative peak area(%), HPLC peak b",[1]; 8 h in PBS,71.1%
same,"Relative peak area(%), HPLC peak a",[1]; 24 h in PBS,28.8%
same,"Relative peak area(%), HPLC peak b",[1]; 24 h in PBS,71.2%
same,"Relative peak area(%), HPLC peak a",[1]; 31 h in PBS,77.7%
same,"Relative peak area(%), HPLC peak b",[1]; 31 h in PBS,22.3%
same,"Relative peak area(%), HPLC peak a",[1]; 47 h in PBS,90.0%
same,"Relative peak area(%), HPLC peak b",[1]; 47 h in PBS,10.0%
same,half-life,"[1]; phosphate buffered saline (PBS) buffer, pH 7.4",14 h
PLA6 analog: glucagon peptide with first 5 amino acids removed and remaining N-terminal amino group replaced with a hydroxyl group (phenyl-lactic acid),glucagon antagonist potency compared with analogs having a slightly extended N-terminus,glucagon receptor,appreciably more potent antagonist
C[C@H](O)[C@@H](NC(=O)CNC(=O)[C@@H](CCCNC(=N)N)NC(=O)[C@H](NC(=O)[C@@H](Cc1c[nH]cn1)NC(=O)CN(C)C(=O)[C@@H](N)CCCCN)[C@H](C)O)C(=O)N[C@H](Cc1ccccc1)C(N)=O [lys-sar-dHdTdRGdTdF-NH2] (H-K[Sar][dH][dT][dR]G[dT][dF]-NH2),"Relative peak area(%), HPLC peak a","5 h in plasma pH 7.4, 37° C., molecular weight 702",17.0%
same,"Relative peak area(%), HPLC peak b","5 h in plasma, molecular weight 902",83.0%
same,"Relative peak area(%), HPLC peak a",11 h in plasma,29.2%
same,"Relative peak area(%), HPLC peak b",11 h in plasma,70.8%
same,"Relative peak area(%), HPLC peak a",24 h in plasma,60.2%
same,"Relative peak area(%), HPLC peak b",24 h in plasma,39.8%
same,"Relative peak area(%), HPLC peak a",32 h in plasma,54.0%
same,"Relative peak area(%), HPLC peak b",32 h in plasma,46.0%
same,"Relative peak area(%), HPLC peak a",48 h in plasma,27.6%
same,"Relative peak area(%), HPLC peak b",48 h in plasma,72.4%
"40 k PEG-Aib^−1-P^0,C^24GLP(7-36): Aib^−1-P^0,C^24GLP(7-36) pegylated by maleimido-functioned 40 k Da PEG on the SH group of 24-Cys ([Aib]PHAEGTFTSDVSSYLEGQAAKEFIC([maleimide-PEG 40 kDa])WLVKGR; ends and bridges not checked)",EC50%/STD ratio,GLP-1 receptor; 30 h in PBS,17.31%
same,EC50%/STD ratio,GLP-1 receptor; 54 h in PBS,27.74%
same,EC50%/STD ratio,GLP-1 receptor; 240 h in PBS,66.49%
same,EC50%/STD ratio,GLP-1 receptor; […] in PBS,55.90%
